Reference: patent publication US11612601B1, “Targeting epidermal growth factor to treat vascular calcification” (THE FLORIDA INTERNATIONAL UNIVERSITY BOARD OF TRUSTEES, priority 2022, dated 2023)

Columns and labels:
CKD mice = experiment: Chronic kidney disease and vascular calcification mouse model (OsteoSense calcium tracer in aorta); type: in vivo; settings: for vascular calcification (calcium tracer OsteoSense visualization, aorta): daily oral gavage 10 mg/kg for two weeks, vs CKD vehicle, 10 mg/kg
Excerpt: The in vivo study was approved by the Institutional Animal Care and Use Committee (IACUC) at Florida International University under protocol AN20-006 and conformed to current NIH guidelines. 8-week-old wild type C57BL/6J mice (n=38, 19 per biological sex) were fed an adenine-supplemented diet (0.2%, TestDiet, Richmond, Ind.) for 6 weeks to induce severe kidney injury. The mice then received a diet containing 1.8% phosphate (TestDiet, Richmond, Ind.) and 0.2% adenine for an additional two weeks to induce medial calcinosis.
Along with this calcifying diet, a group of mice (n=19) received daily tyrphostin AG1478 (10 mg/kg mouse, Millipore Sigma, T4182) via oral gavage. The remaining mice (n=19) received vehicle treatment (1% w/v, carboxymethylcellulose sodium salt, Sigma, C5678). For non-diseased controls, a third group of mice (n=12, 6 per biological sex) were fed a regular chow diet and received the vehicle for the final two weeks. During the oral gavage, animals were partially anesthetized using isoflurane (1%, Patterson Veterinary, 07-893-1389, in 2 L.min^−1 oxygen flow). All animals received a tail vein injection with the calcium tracer OsteoSense 680EX (80 nmol/kg mouse, PerkinElmer, NEV10020EX) 48 hours prior to euthanization. At study endpoint, mice were anesthetized with isoflurane (1%, in 2 L.min^−1 oxygen flow) followed by retro-orbital bleeding for blood collection. Mice were then immediately euthanized by laceration of the diaphragm before tissue collection. After resection, the aortas were imaged using a near-infrared scanner (LI-COR Odyssey) to visualize the vascular calcification burden. A custom MATLAB script quantified the total area of the calcium tracer, which was normalized to the total scanned aorta area.

Osteoblasts (hFOB 1.19) = experiment: Osteoblast osteogenic gene expression, intracellular TNAP activity and CAV1; type: cell-based, human; settings: 7 days
Procedure: Osteoblasts (from human fetus, hFOB 1.19, ATCC, CRL-11372) were cultured and grown in DMEM containing 10% v/v bovine calf serum and 1% v/v penicillin-streptomycin. Osteoblasts (passage 4-6) were harvested using 0.25% trypsin-EDTA solution (Caisson Labs, TRL01), seeded with a density of 5,200 cell.cm^−2, and incubated for 24 hours at 37° C. and 5% CO2 with controlled humidity. The cells were treated in three groups of control, OS, and OS supplemented with tyrphostin AG1478 (2.5 μM) for 21 days and media changed every three days. […] Similar to the VSMC experiments, EV-free media were added to the cultures on days 6, 13, and 20, and collected 24 hours later on days 7, 14, and 21. Collected media were centrifuged at 1,000×g for 5 min to remove cell debris. EVs were isolated using the ultracentrifugation at 100,000×g for 1 hour.
Following 7 or 14 days of treatment with control, OS, and OS plus EGFR inhibitor media, VSMCs and osteoblasts were lysed in 1 mL TRIzol solution (Invitrogen, 15596018). Total RNA was isolated according to the manufacturer's protocol. To perform the quantitative real time polymerase chain reaction (qRT-PCR), Power SYBR Green RNA-to-CT 1-Step Kit (Applied Biosystems, 4391178) was used. 50 ng isolated template RNA were added to each reaction for qRT-PCR. The results were normalized relative to Glyceraldehyde 3-phosphate dehydrogenase (GAPDH) expression level as the housekeeping control. The relative gene expression levels were calculated using comparative CT method, considering control groups as the reference.
The following human primer sequences were purchased from Integrated DNA Technologies (IDT); GAPDH Forward: […] (SEQ ID NO: 1) and Reverse: […] (SEQ ID NO: 2); RUNX2 Forward: […] (SEQ ID NO: 3) and Reverse: […] (SEQ ID NO: 4); ALPL Forward: […] (SEQ ID NO: 5) and Reverse: […] (SEQ ID NO: 6); Osteocalcin Forward: TCACACTCCTCGCCCTATT (SEQ ID NO: 7) and Reverse: […] (SEQ ID NO: 8).
To assess the activity of intracellular tissue non-specific alkaline phosphatase (TNAP), a colorimetric assay kit (BioVision, K412) was used. VSMCs (n=3) after 14 days and osteoblasts (n=3) after 7 days, were lysed in 120 μL assay buffer. 80 μL of each sample were mixed with 50 μL of 5 mM pNPP solution and incubated for 60 min at 25° C. The colorimetric change resulting from the reaction was detected using a plate reader to measure absorbance at 405 nm. The results were normalized to the total protein for associated samples measured by a BCA protein assay (BioVision, K813).
VSMCs, osteoblasts, isolated EVs (either from cells or mouse aortas), and matrix vesicles (from osteoblasts) were lysed in RIPA lysis and extraction buffer supplemented with protease inhibitor. After adding Laemmli SDS-sample buffer (1:4 v/v, Boston BioProducts, BP-110R) to each lysate, the samples were denatured at 100° C. for 10 min, loaded into 7.5-12% 1-mm SDS-PAGE gel (15 to 20 μg protein per lane), and run at 170 V. The proteins were then transferred to Trans-Blot turbo nitrocellulose membranes (BIO-RAD, 1704158) at 25 V for 7 min.
To quantify the total protein, the membranes were stained using 2% w/v Ponceau stain (Alfa Aesar, AAJ6074409) for 20 min, followed by one wash with 5% acetic acid and milliQ water for 5 min. After imaging, the intensity of each lane was measured in ImageJ for total protein normalization. Membranes were blocked with 5% w/v bovine serum albumin (HyClone, SH30574.01) in TBS-Tween (1×) for 1 hour. […]

COc1cc2ncnc(Nc3cccc(Cl)c3)c2cc1OC [AG1478, tyrphostin AG1478]
Quantification of the OsteoSense intensity (vascular calcification) (CKD mice; CKD mice, 10 mg/kg daily, two weeks, vs CKD, p≤0.001): significant reduction | vascular calcification (calcium tracer OsteoSense visualization, aorta) (CKD mice; CKD mice): reduced calcium burden | vascular calcification (calcium tracer OsteoSense visualization, aorta) (CKD mice; CKD mice, listed as EGFR inhibitor): dramatically reduced | survival rate (CKD mice; CKD mouse model): 100% | Gene expression of ALPL in osteoblasts (Osteoblasts (hFOB 1.19); OS + 2.5 μM vs OS, p=0.9): no significant differences | Gene expression of Osteocalcin (BGLAP) in osteoblasts (Osteoblasts (hFOB 1.19); OS + 2.5 μM vs OS, p=0.9): no significant differences | Gene expression of RUNX2 in osteoblasts (Osteoblasts (hFOB 1.19); OS + 2.5 μM): downregulation | intracellular TNAP activity in osteoblasts (Osteoblasts (hFOB 1.19); OS + 2.5 μM): significantly increased | intracellular CAV1 protein in osteoblasts (Osteoblasts (hFOB 1.19); OS + 2.5 μM, compared to control group, p=0.01): significantly increased
